Here are results for 102 molecules from ChEMBL document CHEMBL3507680, “University of Dundee, Gates Library screen for HepG2 cell viability”.

The data set can be described thus: Human HepG2 cell viability assay in 384 well format. The class given is toxicity, cell-based. Set-up: dose 125 nL, time 70.5 hour; concentration not given beside the values. As to conditions: HepG2 cells, read-out: Inhibition.

SMILES strings stand for the structures.

On to `O=C(CC1CCCC1)NCCS(=O)(=O)N1CCN(c2ccccc2)CC1`, for which the cytotoxicity at 70.5 h was -3.36%.
With `O=C(c1ccc(N2CCCC2)nn1)N1CCc2ccccc21` the figure was 0.119%.
With `O=C(Nc1ccc2c(c1)OCO2)c1ccc(N2CCCC2)nn1` the figure was 20.4%; with `Nc1nc2c(c(NC(=O)Nc3ccccc3)n1)CCCC2`, 16.9%.
The result for `Nc1nc2c(c(NC(=O)Nc3ccc(Cl)c(Cl)c3)n1)CCCC2` reads 9.83%.
As for `CCOC(=O)c1cc2n(n1)CCCO2`, the cytotoxicity at 70.5 h worked out at 22.1%.
For `Cc1cccc(N2CCN(S(=O)(=O)CCN)CC2)c1`, the cytotoxicity at 70.5 h was 21.4%.
The result for `CCc1c(C)nc(-n2nc(-c3cccs3)cc2N)[nH]c1=O` reads -5.27%.
The result for `Cc1cc(=O)[nH]c(-n2nc(C3CC3)cc2N)n1` reads 29.2%.
With `CC(C)c1cc(=O)[nH]c(-n2nc(C3CC3)cc2N)n1` the figure was 58.1%; with `c1cncc(CNCCc2cccs2)c1`, -9.29%; with `O=c1n(Cc2cccc(F)c2)nc2ncccn12`, 15.8%.
As to `O=c1n(Cc2ccc(F)cc2)nc2ncccn12`, the cytotoxicity at 70.5 h is 24.8%.
With `O=c1n(Cc2ccccc2F)nc2ncccn12` the figure was 21%; with `CN1C(=O)CCc2cc(NC(=O)C3CC3)ccc21`, 10.6%; with `CN1C(=O)C(C)(C)COc2cc(NS(=O)(=O)c3ccccc3F)ccc21`, 16.6%.
`CC(C)CS(=O)(=O)Nc1ccc2c(c1)OCC(C)(C)C(=O)N2C`: the cytotoxicity at 70.5 h came to 50.7%.
The result for `CCc1cc(=O)[nH]c2nnc(SCC(=O)NC)n12` reads 14.5%; that for `CCc1cc(=O)[nH]c2nnc(SCC(=O)NC(C)C)n12`, 17.6%.
With `NC(=O)CSc1nnc2[nH]c(=O)c3c(n12)CCCC3` the figure was -12.6%; with `COC(=O)CSc1nnc2[nH]c(=O)c3c(n12)CCCC3`, -13.8%; with `CCCNC(=O)CSc1nnc2[nH]c(=O)c3c(n12)CCCC3`, 12.2%.
With `COc1nn(C)cc1C(=O)N1CCC(C)CC1` the figure was 26.1%; with `O=C(Nc1ncnc2c1CCC2)c1ccc2c(c1)OCO2`, 1.01%; with `Cc1cnc2c(c1NCc1cccnc1)c(=O)n(C)c(=O)n2C`, -0.599%.
For `CCc1cnc2c(c1Nc1ccc3c(c1)OCO3)c(=O)n(C)c(=O)n2C`, the cytotoxicity at 70.5 h was -1.57%.
With `CNC(=O)Cn1nc(C(C)C)c2cnn(C(C)(C)C)c2c1=O` the figure was 25.5%; with `COc1ccc(CCC(=O)NCc2cc(C)on2)cc1`, 8.95%.
With `Cc1cnc2n(c1=O)C(CC(=O)NCc1ccc(Cl)cc1)CS2` (configuration not stated) the figure was -5.3%; with `Cc1cnc2n(c1=O)C(CC(=O)NCc1ccco1)CS2` (configuration not stated), -0.737%.
`CCCc1cc(=O)[nH]c2nnc(SCC(=O)NC(C)(C)C)n12`: the cytotoxicity at 70.5 h is -8.6%.
The result for `CCn1cnc2c(cnn2-c2cccc(C)c2C)c1=O` reads 45.8%; that for `CCCn1cnc2c(cnn2-c2cccc(C)c2C)c1=O`, 37.7%.
As to `CCCc1cc(=O)n(CC(=O)NC(C)C)c(-n2nc(C)cc2C)n1`, the cytotoxicity at 70.5 h is -4.73%.
With `O=C(CSC1=NS(=O)(=O)c2cc(F)ccc2N1)Nc1ccc(Cl)c(Cl)c1` the figure was 19.7%; with `COCC(=O)NCc1nn(CCN2CCCC2)c(=O)c2ccccc12`, 29%.
With `CCOC(=O)NCc1nn(CCN2CCCC2)c(=O)c2ccccc12` the figure was 1.9%; with `Cn1cnnc1SCCCNC(=O)Nc1ncccn1`, -2.46%.
With `COc1cn(CC(N)=O)c(CSc2nccc(C)n2)cc1=O` the figure was 23.4%; with `C=Cc1ccc(CSc2nc3c(c(=O)[nH]2)CN(CCC)CC3)cc1`, 8.58%; with `CC(=O)c1c(C)nn(CC(=O)Nc2ccc(Br)cc2)c1C`, 4.72%.
`CC(C)(C)S(=O)(=O)c1ccc(N2CCN(c3ccccc3)CC2)nn1`: the cytotoxicity at 70.5 h was -8.92%.
The result for `CC(C)(C)S(=O)(=O)c1ccc(N2CCN(c3ccccn3)CC2)nn1` reads -17.1%; that for `CCCS(=O)(=O)c1ccc(N2CCN(c3ccccn3)CC2)nn1`, 2.28%.
The result for `COC(=O)CNC(=O)c1sccc1N(C)S(=O)(=O)c1ccc(Cl)cc1` reads 2.69%; that for `CCN(c1ccsc1C(=O)N1CCCCC1)S(=O)(=O)c1ccccc1`, -11.9%; that for `CCN(CC)c1nc2ccsc2c(=O)n1CCC(=O)NCc1cccs1`, -9.85%.
On to `COC(=O)CN1N=C(C(=O)N2CCCC2)S(=O)(=O)c2ccccc21`, for which the cytotoxicity at 70.5 h was -4.54%.
Turning to `COc1ncc(C(=O)NCc2ccc(Br)cc2)cn1`, the cytotoxicity at 70.5 h was -2.74%.
With `O=c1c(S(=O)(=O)N2CCCC2)cccn1Cc1ccccc1Cl` the figure was -6.09%; with `O=c1[nH]c2c(-c3ccccn3)nsc2c(=O)n1CC1CCCO1` (configuration not stated), -11.7%; with `Cc1cc(C)n(-c2ccnc(N3CCC(C(=O)N4CCCC4)CC3)n2)n1`, -4.06%.
With `COc1ccc(OC)c(C(O)CN2CCN(c3cccc(C)c3)CC2)c1` (configuration not stated) the figure was 7.32%; with `O=C(O)C1CCN(c2nc3c(-c4ccccc4F)csc3c(=O)[nH]2)CC1`, -0.14%; with `COCCCNC(=O)Cc1cc(-c2ccc3c(c2)OCO3)on1`, 13.4%.
The result for `COc1nn(C)cc1-c1nnc(SCc2cccnc2)n1C` reads -5.69%; that for `CCOc1nn(CC)cc1-c1nnc(SCc2ccccn2)n1C`, -6.8%.
With `CC(=O)N1C[C@H]2CCCN(c3ncc(C)cn3)[C@H]2C1`, the cytotoxicity at 70.5 h was -11.8%.
As for `Cc1cnc(N2CCC[C@@H]3CN(S(C)(=O)=O)C[C@@H]32)nc1`, the cytotoxicity at 70.5 h was -14.9%.
With `O=C(CCO)N1CC2(CCN(c3ccccc3)C2)C1` the figure was -1.72%; with `CC(C)NC(=O)N1CCC2(CCCO2)C1` (configuration not stated), 14.2%.
The result for `CCOC1CC2(CCN(Cc3cnn(C)c3)CC2)c2ccc(C)cc21` (configuration not stated) reads 1.09%.
With `CCCN1CCC2(C1)c1ccccc1S(=O)(=O)N2Cc1ccc(F)cc1` (configuration not stated) the figure was -1.79%; with `CCOC(=O)C1CN(S(C)(=O)=O)Cc2ncn(CC)c21` (configuration not stated), -0.182%.
Turning to `Cc1ccc(NC(=O)c2nc3c(s2)CCCN3C(C)C)cn1`, the cytotoxicity at 70.5 h was -0.97%.
As to `O=C(NCCNc1ncccn1)C1CCCC1`, the cytotoxicity at 70.5 h came to 15.4%.
As to `O=C(c1cc(C2CC2)[nH]n1)N1CCN(Cc2ccccc2)CC1`, the cytotoxicity at 70.5 h was -4.29%.
With `O=C(c1cc(C2CC2)[nH]n1)N1CCN(Cc2ccc(Cl)cc2)CC1` the figure was 12.5%.
With `Cc1nnc2n1CCN(Cc1csc(COc3ccccc3)n1)C2` the figure was -7.26%.
The result for `NC(=O)C1CN(C(=O)Nc2ccccc2SC2CCCC2)CCO1` (configuration not stated) reads -3.34%; that for `COCCOc1cccc(C(=O)N2CCCC(n3ccnc3)C2)c1` (configuration not stated), -4.62%.
Take `N#CCCNC(=O)CN1CC(n2cccn2)C1`: the cytotoxicity at 70.5 h was -1.56%.
With `Cc1ccc(NC2CCN(C(=O)CCc3ccncc3)CC2)nn1` the figure was -7.44%.
The result for `c1ccc2oc(CCCN3CCCCC3Cn3cncn3)nc2c1` (configuration not stated) reads -7.94%.
The result for `O=C(CN1CC(n2cccn2)C1)NCCC1=CCCCC1` reads -6.23%; that for `CC(C)c1ncc2c(n1)CN(Cc1nc(-c3ccco3)no1)CC2`, -8.2%.
Take `CN1CCOC(CN(C(=O)COc2ccccc2)c2nccs2)C1` (configuration not stated): the cytotoxicity at 70.5 h is -4%.
With `CC(C)c1ncc2c(n1)CN(Cc1nc(-c3ccccn3)no1)CC2` the figure was -6.83%.
The result for `Cc1nn(C)c(C)c1C1CCCN1Cc1nc(-c2cccs2)no1` (configuration not stated) reads -2%; that for `CC1CN(CC(=O)NCc2cccs2)CCN1c1nccs1` (configuration not stated), -10.4%.
The result for `Cc1nn(C)c(Cl)c1C1CCCN1Cc1nc(-c2ccco2)no1` (configuration not stated) reads -6.17%; that for `CCc1ncc2c(n1)CN(Cc1nc(-c3cccs3)no1)CC2`, -13%; that for `c1ccc2oc(CN3CCCC3Cn3cncn3)nc2c1` (configuration not stated), -6.61%.
Consider `Cc1cnn(CC2CCCN2Cc2nnc(C(C)C)o2)c1` (configuration not stated), for which the cytotoxicity at 70.5 h came out at 23%.
With `Cn1ncc2c(N3CCN(C(=O)c4ccsc4)CC3)ncnc21` the figure was -4.15%; with `COc1ccc(Cl)cc1C(=O)NCCNc1cnccn1`, -3.57%; with `Cn1ccc(C(=O)N2CCN(c3nccs3)CC2)cc1=O`, 2.52%.
`COc1cc(CNCc2ccnc(N3CCOCC3)c2)cc(OC)c1`: the cytotoxicity at 70.5 h was 17.7%.
With `c1csc(-c2noc(C3CNC3)n2)c1` the figure was -8.98%; with `Clc1cccnc1OC1CCNCC1`, 22.1%; with `N#Cc1cccnc1OC1CCNCC1`, 37.8%.
On to `CN1CC2(CCN(Cc3cccnc3)CC2)c2cccc(F)c21`, for which the cytotoxicity at 70.5 h is -2.73%.
With `Cc1noc([C@]23COC[C@H]2CN(C(C)C)C3)n1`, the cytotoxicity at 70.5 h turned out to be 1.38%.
The result for `CC(C)OCc1ncn2c1CN(CCO)CCC2` reads -0.995%; that for `Cc1cnc(N2CCC[C@@H]3CN(CC(=O)N(C)C)C[C@@H]32)nc1`, -6.11%.
The result for `Cc1ccc(N2C[C@@H]3CN(Cc4ccoc4)CCO[C@@H]3C2)nn1` reads 10.2%; that for `OCCN1CC2(CCN(c3ccccc3)C2)C1`, 0.92%; that for `Cc1ccc(NCc2cn3c(n2)CN(Cc2ccc(C)o2)CC3)nn1`, -4.46%.
With `Cc1ccc2c(c1)C(N(C)C)CC21CCN(CCO)CC1` (configuration not stated) the figure was -0.704%.
`CN1[C@H](Cn2cncn2)C[C@@H]2CN(C3CCOCC3)CC[C@@H]21`: the cytotoxicity at 70.5 h amounted to 0.159%.
With `Fc1ccc(CN2CCC3(CC2)CCN(Cc2nccs2)CC3)cc1` the figure was 1.45%.
The result for `c1ccc(OCc2nnc3n2CCN(Cc2ccco2)C3)nc1` reads -2.29%.
